# Assays:
# [1] = biological target: ITK (Homo sapiens (Human), UniProt Q08881); experiment: ITK kinase inhibition assay; assay type: biochemical; details: micro-fluidic detection, 3 hours at 25° C.
# Protocol: (§1) The in vitro kinase assays were performed at Nanosyn utilizing micro-fluidic detection technology. The test compounds were serially pre-diluted in DMSO and added, by the acoustic dispensing (Labcyte® 550), directly to 384 well assay plates into 10 uL of a buffer with enzyme comprising: 100 mM HEPES, pH7.5, 5 mM MgCl2, 0.1% bovine serum albumin, 1 mM DTT, 0.01% Triton X-100 and the enzyme. Final DMSO concentration was maintained at 1% in all samples, including the controls. The reactions were initiated by addition of ATP (to the specified concentration) and the fluorescently labeled peptide substrate to a final concentration of 1 uM, and incubated for 3 hours at 25° C. Following incubation, the reactions were quenched by addition of 40 μL of termination buffer (100 mM HEPES, pH7.5, 0.01% Triton X-100, 50 mM EDTA). Terminated plates were analyzed using Caliper LabChip® 3000 microfluidic electrophoresis instrument (Caliper Life Sciences/Perkin Elmer). The enzymatic modification of the peptide substrate (phosphorylation) results in a change of net charge enabling electrophoretic separation of product from substrate. As substrate and product are separated by electrophoresis, two peaks of fluorescence are observed. Change in the relative fluorescence intensity of the substrate and product peaks was the parameter measured, reflecting enzyme activity. In the presence of inhibitor, the ratio between product and substrate is altered: signal of the product decreases, while the signal of the substrate increases. Activity in each test sample was determined as the product to sum ratio (PSR):P/(S+P), where P is the peak height of the product and S is the peak height of the FAM-cAMP substrate. For each compound, enzyme activity was measured at 12 concentrations spaced by 3× dilution intervals. Negative control samples (0%-inhibition in the absence of inhibitor, DMSO only) and positive control samples (100%-inhibition, in the absence of enzyme or in the presence of control inhibitor) were assembled in replicates of four and were used to calculate %-inhibition values in the presence of compounds. Percent inhibition (Pinh) was determined using the following equation: Pinh=(PSR0%−PSRinh)/(PSR0%−PSR100%)*100, where PSRinh is the product sum ratio in the presence of inhibitor, PSR0% is the product sum ratio in the absence of inhibitor and PSR100% is the product sum ratio in 100%-inhibition control samples. To determine IC50 values, the inhibition curves (Pinh versus inhibitor concentration) were fitted by 4 parameter sigmoid dose-response model using XLfit software (IDBS).
# [2] = system: Human PBMCs; experiment: CD3/CD28 mediated PBMC proliferation assay; assay type: cell-based; details: proliferation of human PBMCs stimulated with anti-CD3 and anti-CD28, 72 hours, Cell Titer-Glo
# Procedure, shortened: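 PBMCs pre-treated 30 min with compound, then stimulated on plate-bound anti-CD3 (coated at 5 μg/mL) plus soluble anti-CD28 (2 μg/mL final) for 72 h at 37 °C. Proliferation measured as ATP by CellTiter-Glo; EC50 versus vehicle controls from dose-response curves.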
# [3] = biological target: RLK/TXK (Homo sapiens (Human), UniProt P42681); experiment: RLK/TXK kinase inhibition assay; assay type: biochemical; details: micro-fluidic detection, 3 hours at 25° C.
# Chain of RLK/TXK (P42681 whole entry): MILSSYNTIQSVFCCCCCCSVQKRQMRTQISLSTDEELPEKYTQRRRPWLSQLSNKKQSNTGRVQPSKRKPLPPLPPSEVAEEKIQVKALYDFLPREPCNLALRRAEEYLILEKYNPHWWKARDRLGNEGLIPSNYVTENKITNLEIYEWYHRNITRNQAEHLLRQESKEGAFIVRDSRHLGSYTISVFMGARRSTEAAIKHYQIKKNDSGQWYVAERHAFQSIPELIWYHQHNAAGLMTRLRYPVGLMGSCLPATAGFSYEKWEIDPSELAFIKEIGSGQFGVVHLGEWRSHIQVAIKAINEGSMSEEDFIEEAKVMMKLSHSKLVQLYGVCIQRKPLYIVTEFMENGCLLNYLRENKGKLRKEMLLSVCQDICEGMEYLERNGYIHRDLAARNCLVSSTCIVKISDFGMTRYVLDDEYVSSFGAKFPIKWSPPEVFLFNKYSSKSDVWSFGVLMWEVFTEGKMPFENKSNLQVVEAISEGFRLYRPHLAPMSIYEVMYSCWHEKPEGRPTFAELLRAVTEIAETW
# Protocol: as §1, with “384well” for “384 well”, “(PSR): P/(S+P),” for “(PSR):P/(S+P),”
# Chain of ITK (Q08881 whole entry): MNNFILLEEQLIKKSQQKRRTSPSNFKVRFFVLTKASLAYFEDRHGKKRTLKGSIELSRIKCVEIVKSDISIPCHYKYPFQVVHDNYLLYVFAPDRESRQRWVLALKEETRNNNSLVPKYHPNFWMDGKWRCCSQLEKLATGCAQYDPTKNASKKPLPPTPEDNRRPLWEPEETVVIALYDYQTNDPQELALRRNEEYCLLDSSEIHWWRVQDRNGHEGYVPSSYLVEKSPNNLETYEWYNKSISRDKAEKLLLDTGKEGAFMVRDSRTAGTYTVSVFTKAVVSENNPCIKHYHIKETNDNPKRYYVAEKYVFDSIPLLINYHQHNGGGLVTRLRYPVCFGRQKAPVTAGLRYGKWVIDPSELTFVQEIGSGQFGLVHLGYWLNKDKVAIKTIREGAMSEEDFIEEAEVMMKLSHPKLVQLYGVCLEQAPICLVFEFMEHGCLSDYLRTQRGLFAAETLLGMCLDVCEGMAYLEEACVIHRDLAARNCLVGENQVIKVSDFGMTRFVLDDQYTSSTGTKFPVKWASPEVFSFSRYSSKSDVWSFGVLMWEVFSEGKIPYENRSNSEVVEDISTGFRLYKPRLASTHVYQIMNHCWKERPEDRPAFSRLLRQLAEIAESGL
Compound,EC50 [1],EC50 [3],EC50 [2]
C=CC(=O)Nc1cccc(-n2c(NC(=O)c3ccno3)nc3cc(CN[C@@H](C)C(C)(C)C)ccc32)c1 [Compound 38],< 10 nM,< 10 nM,10 to 100 nM
C=CC(=O)Nc1cccc(-n2c(NC(=O)c3cccc(C#N)c3)nc3cc(CN[C@@H](C)C(C)(C)C)ccc32)c1 [Compound 9],< 10 nM,< 10 nM,10 to 100 nM

# Second part, led by results:
EC50 [1],EC50 [3],Compound,EC50 [2]
< 10 nM,< 10 nM,C=CC(=O)Nc1cccc(-n2c(NC(=O)c3ccc(C(F)F)s3)nc3cc(CN[C@@H](C)C(C)(C)C)ccc32)c1 [Compound 2],10 to 100 nM
< 10 nM,< 10 nM,C=CC(=O)Nc1cccc(-n2c(NC(=O)c3ccnn3C)nc3cc(CN[C@@H](C)C(C)(C)C)ccc32)c1 [Compound 28],10 to 100 nM
< 10 nM,< 10 nM,C=CC(=O)Nc1cccc(-n2c(NC(=O)c3ccc(-c4cnco4)s3)nc3cc(CN[C@@H](C)C(C)(C)C)ccc32)c1 [Compound 25],< 10 nM
